Data as given in the NIST ThermoML archive (doi:10.1016/j.jct.2013.09.010).
Where “and” joins values, the source holds several entries; their conditions need not be identical. Equal entries are not always repeated.

Legend:
[1] = Liquid, Vibrating tube method
[2] = molar heat capacity at constant pressure; settings: 101 kPa, Liquid, Small sample (50 mg) DSC

CCCCC(=O)[O-].C[NH2+]CCO [2-hydroxy-N-methylethanaminium pentanoate]
mass density [kg/m3], [1]
Settings | 298.15 K | 308.15 K | 318.15 K | 328.15 K | 338.15 K | 348.15 K | 358.15 K
100 kPa | 1009.33 | 1002.78 | 996.28 | 989.85 | 983.48 | 977.17 | 970.92
5000 kPa | 1011.62 | 1005.23 | 998.89 | 992.6 | 986.35 | 980.15 | 974
10000 kPa | 1014.08 | 1007.73 | 1001.45 | 995.24 | 989.11 | 983.05 | 977.05
15000 kPa | 1016.41 | 1010.14 | 1003.96 | 997.85 | 991.83 | 985.88 | 980.01
20000 kPa | 1018.67 | 1012.49 | 1006.39 | 1000.37 | 994.43 | 988.57 | 982.79
25000 kPa | 1020.85 | 1014.74 | 1008.72 | 1002.79 | 996.97 | 991.23 | 985.59

[2]
Settings | molar heat capacity at constant pressure
283.15 K | 384.8 J/K/mol
287.15 K | 396.1 J/K/mol and 394.2 J/K/mol
288.15 K | 395.6 J/K/mol [middle of 5 runs]
289.15 K | 396 J/K/mol [middle of 4 runs]
290.15 K | 396.8 J/K/mol [middle of 4 runs]
291.15 K | 397.4 J/K/mol [middle of 4 runs]
292.15 K | 397.9 J/K/mol [middle of 4 runs]
293.15 K | 397.7 J/K/mol [middle of 5 runs]
294.15 K | 398.4 J/K/mol [middle of 4 runs]
295.15 K | 399 J/K/mol [middle of 4 runs]
296.15 K | 399.3 J/K/mol and 397.9 J/K/mol and 400.7 J/K/mol
297.15 K | 400 J/K/mol [middle of 4 runs]
298.15 K | 400.6 J/K/mol [middle of 4 runs]
299.15 K | 402.3 J/K/mol and 401.1 J/K/mol and 399.5 J/K/mol
300.15 K | 401.8 J/K/mol [middle of 4 runs]
301.15 K | 402.3 J/K/mol [middle of 4 runs]
302.15 K | 402.7 J/K/mol [middle of 4 runs]
303.15 K | 402.3 J/K/mol [middle of 5 runs]
304.15 K | 403.2 J/K/mol [middle of 4 runs]
305.15 K | 403.6 J/K/mol [middle of 4 runs]
306.15 K | 405 J/K/mol and 403 J/K/mol and 402.3 J/K/mol
307.15 K | 402.7 J/K/mol
308.15 K | 401.6 J/K/mol and 403 J/K/mol
309.15 K | 403.4 J/K/mol
310.15 K | 403.8 J/K/mol
311.15 K | 404.3 J/K/mol
312.15 K | 404.6 J/K/mol
313.15 K | 405 J/K/mol and 405.2 J/K/mol
314.15 K | 405.5 J/K/mol
315.15 K | 405.7 J/K/mol
316.15 K | 406.1 J/K/mol
317.15 K | 406.1 J/K/mol
318.15 K | 408.9 J/K/mol and 406.4 J/K/mol
319.15 K | 406.8 J/K/mol
320.15 K | 407.1 J/K/mol
321.15 K | 407.5 J/K/mol
322.15 K | 407.8 J/K/mol
323.15 K | 412.8 J/K/mol and 408.2 J/K/mol
324.15 K | 408.5 J/K/mol
325.15 K | 408.9 J/K/mol
328.15 K | 416.7 J/K/mol
333.15 K | 420.6 J/K/mol

CCC(=O)[O-].C[NH2+]CCO [2-hydroxy-N-methylethanaminium propionate]
mass density [kg/m3], [1]
Settings | 100 kPa | 2000 kPa | 3000 kPa | 5000 kPa | 10000 kPa | 15000 kPa | 20000 kPa | 25000 kPa
298.15 K | 1065.75 | 1066.51 | 1066.95 | 1067.8 | 1069.86 | 1071.89 | 1073.87 | 1075.79
303.15 K | 1062.59 | 1063.37 | 1063.82 | 1064.69 | 1066.79 | 1068.87 | 1070.88 | 1072.86
308.15 K | 1059.41 | 1060.21 | 1060.67 | 1061.55 | 1063.7 | 1065.82 | 1067.88 | 1069.9
313.15 K | 1056.21 | 1057.03 | 1057.51 | 1058.4 | 1060.6 | 1062.76 | 1064.86 | 1066.92
318.15 K | 1052.99 | 1053.83 | 1054.32 | 1055.23 | 1057.47 | 1059.68 | 1061.82 | 1063.93
323.15 K | 1049.76 | 1050.61 | 1051.11 | 1052.04 | 1054.32 | 1056.58 | 1058.76 | 1060.91
328.15 K | 1046.5 | 1047.37 | 1047.89 | 1048.84 | 1051.16 | 1053.47 | 1055.68 | 1057.87
333.15 K | 1043.23 | 1044.11 | 1044.64 | 1045.61 | 1047.97 | 1050.33 | 1052.59 | 1054.82
338.15 K | 1039.93 | 1040.84 | 1041.38 | 1042.36 | 1044.77 | 1047.17 | 1049.47 | 1051.74
343.15 K | 1036.62 | 1037.54 | 1038.1 | 1039.1 | 1041.55 | 1043.99 | 1046.33 | 1048.65
348.15 K | 1033.29 | 1034.23 | 1034.8 | 1035.81 | 1038.3 | 1040.8 | 1043.17 | 1045.54
353.15 K | 1029.94 | 1030.9 | 1031.48 | 1032.51 | 1035.04 | 1037.58 | 1040 | 1042.4
358.15 K | 1026.57 | 1027.55 | 1028.14 | 1029.19 | 1031.76 | 1034.35 | 1036.8 | 1039.25

[2]
Settings | molar heat capacity at constant pressure
287.15 K | 322.8 J/K/mol
288.15 K | 324.3 J/K/mol and 323.1 J/K/mol and 322.8 J/K/mol
289.15 K | 324.5 J/K/mol [middle of 4 runs]
290.15 K | 324.8 J/K/mol [middle of 5 runs]
291.15 K | 324.9 J/K/mol [middle of 5 runs]
292.15 K | 325.7 J/K/mol [middle of 5 runs]
293.15 K | 326.1 J/K/mol [middle of 5 runs]
294.15 K | 326.6 J/K/mol [middle of 4 runs]
295.15 K | 327 J/K/mol [middle of 4 runs]
296.15 K | 327.2 J/K/mol [middle of 4 runs]
297.15 K | 327.5 J/K/mol [middle of 5 runs]
298.15 K | 327.9 J/K/mol [middle of 4 runs]
299.15 K | 328.2 J/K/mol [middle of 5 runs]
300.15 K | 328.7 J/K/mol [middle of 5 runs]
301.15 K | 329.1 J/K/mol [middle of 5 runs]
302.15 K | 329.4 J/K/mol [middle of 5 runs]
303.15 K | 329.7 J/K/mol [middle of 5 runs]
304.15 K | 329.9 J/K/mol [middle of 4 runs]
305.15 K | 330 J/K/mol [middle of 4 runs]
306.15 K | 330.7 J/K/mol and 330.2 J/K/mol and 329.6 J/K/mol
307.15 K | 329.9 J/K/mol
308.15 K | 330.2 J/K/mol
309.15 K | 330.5 J/K/mol
310.15 K | 330.9 J/K/mol
311.15 K | 331.2 J/K/mol
312.15 K | 331.6 J/K/mol
313.15 K | 332.1 J/K/mol
314.15 K | 332.4 J/K/mol
315.15 K | 332.7 J/K/mol
316.15 K | 332.8 J/K/mol
317.15 K | 333 J/K/mol
318.15 K | 333.1 J/K/mol
319.15 K | 333.4 J/K/mol
320.15 K | 333.6 J/K/mol
321.15 K | 333.9 J/K/mol
322.15 K | 334 J/K/mol
323.15 K | 334.5 J/K/mol
324.15 K | 334.9 J/K/mol
325.15 K | 335.4 J/K/mol
326.15 K | 335.8 J/K/mol
